According to US20240092759A1, “Non-Covalent Inhibitors of the Main Protease of SARS-CoV-2 and Methods of Use” (YALE UNIVERSITY, priority 2021, published 2024):
Where two headings read alike, the source gives them in different places.

Legend:
[1] = tested on: infectious SARS-CoV-2 (isolate USA-WA1/2020); experiment: Antiviral assay, cytopathic effect by MTT in Vero E6 cells; assay type: cell-based; settings: for EC50: Severe acute respiratory syndrome coronavirus 2, Vero C1008
[2] = tested on: infectious SARS-CoV-2 (isolate USA-WA1/2020); experiment: microbe, parasite or virus in culture; assay type: cell-based; settings: for EC50: Severe acute respiratory syndrome coronavirus 2, Vero C1008, Vero E6 cells, read-out: EC50 Plaque
[3] = tested on: Vero E6 cells; experiment: Cellular cytotoxicity by MTT in Vero E6 cells; settings: for cytotoxicity: Vero E6 and NHBE cells; for CC50: read-out: CC50 Vero E6, absence of virus
[4] = tested on: normal human bronchial epithelial cells (NHBE); experiment: Cellular cytotoxicity by MTT in normal human bronchial epithelial cells; settings: for CC50: read-out: CC50 NHBE, MTT
[5] = biological target: recombinant SARS-Cov-2 M^pro (Severe acute respiratory syndrome coronavirus 2 (2019-nCoV) (SARS-CoV-2), UniProt P0DTD1); experiment: biochemical
[6] = tested on: SARS-CoV-2 replicon; experiment: microbe, parasite or virus in culture; assay type: cell-based; settings: for IC50: Severe acute respiratory syndrome coronavirus 2, dose-response curves of FIGS. 6A-6B, read-out: IC50, replicon assay, compound alone
[7] = footnote b: drop in viral titer/incomplete inhibition
[8] = Vero E6 cells, MOI 0.01, 72 h, NA = not active, read-out: EC50 MTT
[9] = combination with remdesivir, MacSynergy II

Compound	antiviral activity in the viral plaque assay [2]	cytotoxicity [3]	CC50 [3]	CC50 [4]	further results
O=c1[nH]cc(-c2cc(-c3cc(Cl)c(F)c(OCc4ccccc4Cl)c3)c(=O)n(-c3cccnc3)c2)c(=O)[nH]1 [Compound 44, 5-(3-(3-Chloro-5-((2-chlorobenzyl)oxy)-4-fluorophenyl)-2-oxo-2H-[1,3′-bipyridin]-5-yl)pyrimidine-2,4(1H,3H)-dione]	showed activity	greatest cytotoxicity	1.15 ± 0.5 µM	3.5 ± 1 µM	antiviral activity in the MTT assay [1]: lacked antiviral activity; EC50 ([2]; MOI 0.01): 0.84 µM
N#Cc1ccccc1-c1cc(-c2cc(Cl)cc(Cl)c2)c(=O)n(-c2cccnc2)c1 [Compound 9, 2-(3-(3,5-Dichlorophenyl)-2-oxo-2H-[1,3′-bipyridin]-5-yl)benzonitrile]					IC50 ([5]; IC50): 4.2 µM; IC50 ([5]; read-out: IC50 (μM), inhibition of SARS-Cov-2 M^pro, Table 4): 4.02 ± 1.36 µM; IC50 [6]: 0.0938 µM; combination behavior ([6]; combination with EIDD-1931): synergistic effect
O=c1[nH]cc(-c2cc(-c3cc(Cl)cc(OCc4ccccc4Cl)c3)c(=O)n(-c3cccnc3)c2)c(=O)[nH]1 [Compound 37, 5-(3-(3-Chloro-5-((2-chlorobenzyl)oxy)phenyl)-2-oxo-2H-[1,3′-bipyridin]-5-yl)pyrimidine-2,4(1H,3H)-dione]	showed activity	greatest cytotoxicity	1.7 ± 0.9 µM	2 ± 0.1 µM	antiviral activity in the MTT assay [1]: lacked antiviral activity; EC50 [2, 7]: 11.3 µM
N#Cc1ccccc1-c1cc(-c2cc(Cl)cc(OCCC(F)(F)F)c2)c(=O)n(-c2cccnc2)c1 [Compound 47, 2-(3-(3-Chloro-5-(3,3,3-trifluoropropoxy)phenyl)-2-oxo-2H-[1,3′-bipyridin]-5-yl)benzonitrile]			22 ± 8 µM	25 ± 5 µM	cytotoxicity towards the NHBE cells ([4]; compared with 39): more cytotoxic
CCC(CC)COC(=O)[C@H](C)N[P@](=O)(OC[C@H]1O[C@@](C#N)(c2ccc3c(N)ncnn23)[C@H](O)[C@@H]1O)Oc1ccccc1 [remdesivir, reference compound]			72 ± 28 µM	41 ± 2 µM	
O=c1nc(NO)ccn1[C@@H]1O[C@H](CO)C(O)[C@@H]1O (stereo partly drawn) [EIDD-1931, reference compound]					IC50 [6]: 2.23 µM
O=c1[nH]cc(-c2cc(-c3cc(Cl)cc(OCc4ccccc4)c3)c(=O)n(-c3cccnc3)c2)c(=O)[nH]1 [Compound 46, 5-(3-(3-(Benzyloxy)-5-chlorophenyl)-2-oxo-2H-[1,3′-bipyridin]-5-yl)pyrimidine-2,4(1H,3H)-dione]	antiviral activity was found		12.3 ± 7 µM	17.5 ± 5.5 µM	EC50 [2, 7]: 3.2 µM
N#Cc1ccccc1-c1cc(-c2cc(Cl)cc(OCC3CC3)c2)c(=O)n(-c2cccnc2)c1 [Compound 39, 2-(3-(3-Chloro-5-(cyclopropylmethoxy)phenyl)-2-oxo-2H-[1,3′-bipyridin]-5-yl)benzonitrile]		no cytotoxicity to the highest concentration tested (100 μM)	> 100 µM	> 100 µM	EC50 [1, 8]: 2 ± 0.7 µM; EC50 ([1]; read-out: EC50, MTT assay): ~1 µM
CCCOc1cc(Cl)cc(-c2cc(-c3ccccc3C#N)cn(-c3cccnc3)c2=O)c1 [Compound 13, 2-(3-(3-Chloro-5-propoxyphenyl)-2-oxo-2H-[1,3′-bipyridin]-5-yl)benzonitrile]			22 µM	20 ± 2 µM	factor of improvement in potency over 9 ([5]; ratio of IC50 values): ca. 30; EC50 [1, 8]: 2.5 ± 0.7 µM; EC50 ([1]; read-out: EC50, MTT assay): 2.5 µM; combination behavior ([6]; combination with remdesivir): statistically significant synergistic behavior; antagonism volume [6, 9]: 0 μM^2%; mean synergy volume [6, 9]: 30.8 μM^2%
